Measurements from publication PMC6278284, “Synthesis of Jacaranone-Derived Nitrogenous Cyclohexadienones and Their Antiproliferative and Antiprotozoal Activities” (Molecules, 2018).
Like-named read-outs stand apart in the source and are kept apart here.

Assays:
Type in all cases: cell-based
[1] = tested on: T. brucei rhodesiense, strain STIB900 trypomastigote forms; assay: In vitro growth inhibition assay of Trypanosoma brucei rhodesiense (Alamar Blue); conditions: for IC50: 72 h, strain STIB900, trypomastigote forms, read-out: T.b.rhod. IC50; for SI (IC50 in L6 cells/IC50 T. b. rhodesiense): ratio IC50 L6 / IC50 T. b. rhodesiense STIB900
Method: Trypanosoma brucei rhodesiense, STIB 900 strain, and the standard drug, melarsoprol, were used for the assay. Minimum Essential Medium (50 μL) supplemented with 25 mM HEPES, 1g/L additional glucose, 1% MEM non-essential amino acids (100×), 0.2 mM 2-mercaptoethanol, 1 mM Na-pyruvate, and 15% heat-inactivated horse serum was added to each well of a 96-well microtiter plate. Serial drug dilutions of 11 three-fold dilution steps covering a range from 100 to 0.002 μg/mL were prepared. Then, 4 × 10^3 bloodstream forms of T. b. rhodesiense (STIB 900) in 50 μL were added to each well and the plate was incubated at 37 °C under a 5% CO2 atmosphere for 72 h. 10 μL Alamar Blue (resazurin, 12.5 mg in 100 mL double-distilled water) was then added to each well and incubation continued for a further 2–4 h. Then, the plates were read with a Spectramax Gemini XS microplate fluorometer (Molecular Devices Cooperation, Sunnyvale, CA, USA) using an excitation wavelength of 536 nm and an emission wavelength of 588 nm. The IC50 values were calculated from the sigmoidal inhibition curves using the microplate reader software, Softmax Pro (Molecular Devices Cooperation, Sunnyvale, CA, USA). Melarsoprol was used as the control.

[2] = tested on: HCT-116 colon cancer cells; assay: XTT viability assay, HCT-116; conditions: Homo sapiens, 72 h, read-out: metabolic active cells in % of control; for viability at 5 µg/mL: HCT 116, 5 µg/mL; for viability at 50 µg/mL: HCT 116, 50 µg/mL
Method: (§1) Human CCRF-CEM leukemia and MDA-MB-231 breast cancer cells lines were kept in RPMI1640 medium (Gibco®, ThermoFisher Scientific Inc., New York, NY, USA), supplemented with 2 mM L-glutamine (Gibco®), 10% heat-inactivated foetal bovine serum (FBS, Gibco®), 100 units/mL Penicillin (PAA), and 100 µg/mL Streptomycin (Gibco®) (1% Pen/Strep). HCT-116 and U251 cells were cultured in high-glucose Dulbecco’s Modified Eagle Medium (DMEM, Gibco®) containing 2 mM L-glutamine, 10% FBS, and 1% Pen/Strep. MRC-5 cells were grown in Minimum Essential Medium (MEM, Gibco®) supplemented with 2 mM L-glutamine, 10% FBS, and 1% Pen/Strep. All cells were kept in a humidified 5% CO2 atmosphere at 37 °C and passaged at 90% confluence.
(§2) A Cell Proliferation Kit II (XTT) was purchased from Sigma-Aldrich and performed as described previously and in accordance with the manufacturer’s protocol. In brief, adherent cell lines were seeded at a density of 50,000 cells/mL or 100,000 cells/mL (MRC-5) in 96 well plates (100 µL, flat bottom) and grown for 24 h before test compounds were added. Suspension cells (CCRF-CEM) were seeded at 100,000 cells/mL and test compounds were added immediately. After 72 h, XTT solution was added for another 90 min or 4 h (CCRF-CEM cells) and absorbance was measured at 490 nm with a reference wave length of 650 nm (Hidex Sense Microplate Reader 425-301, Hidex, Turku, Finland). Results are expressed as a percentage of the vehicle-treated (0.5% DMSO) control cells. Vinblastine served as the positive control (0.01 µg/mL).

[3] = tested on: U251 glioblastoma cells; assay: XTT viability assay, U251; conditions: Homo sapiens, U-251, 72 h, read-out: metabolic active cells in % of control; for viability at 5 µg/mL: U251, 5 µg/mL; for viability at 50 µg/mL: U251, 50 µg/mL
Method: as §1, §2

**Q.** How did the IC50 ([1]; Trypanosoma brucei) turn out when `O=C1C=CC(O)(CCN2C(=O)C=CC2=O)C=C1` [Compound 13b, N-[2-(1-Hydroxy-4-oxocyclohexa-2,5-dien-1-yl)ethyl]maleimide] was run?
**A.** Its IC50 is 2150 nM.

**Q.** And the “SI (IC50 in L6 cells/IC50 T. b. rhodesiense)” value (“SI” for short) [1]?
**A.** Its value is 12.5.

**Q.** And the viability at 5 µg/mL [2]?
**A.** Its viability at 5 µg/mL is 0.13%.

**Q.** What about the viability at 50 µg/mL [2] of the same compound?
**A.** Its viability at 50 µg/mL is -0.32%.

**Q.** And the viability at 5 µg/mL [3]?
**A.** The viability at 5 µg/mL was 95.2%.

**Q.** And the viability at 50 µg/mL [3]?
**A.** The viability at 50 µg/mL was -0.41%.

**Q.** With `O=C1C=CC(O)(CCN2C(=O)c3cccnc3C2=O)C=C1` [Compound 13f, N-[2-(1-Hydroxy-4-oxocyclohexa-2,5-dien-1-yl)ethyl]pyridine-2,3-dicarboximide] as the compound, how does the “SI” value [1] read?
**A.** The value was 3.4.

**Q.** And the viability at 5 µg/mL [2]?
**A.** Its viability at 5 µg/mL is 91%.

**Q.** And the viability at 50 µg/mL [2]?
**A.** Its viability at 50 µg/mL is 92.8%.

**Q.** What about the viability at 5 µg/mL [3] of the same compound?
**A.** The viability at 5 µg/mL was 91.8%.

**Q.** What about the viability at 50 µg/mL [3] of the same compound?
**A.** Its viability at 50 µg/mL is 93.7%.

**Q.** For `O=C1C=CC(O)(CCN2C(=O)COCC2=O)C=C1` [Compound 13g, N-[2-(1-Hydroxy-4-oxocyclohexa-2,5-dien-1-yl)ethyl]morpholine-3,5-dione], which IC50 ([1]; Trypanosoma brucei) is on record?
**A.** The IC50 was over 10000 nM.

**Q.** And the “SI” value [1]?
**A.** Its value is 5.1.

**Q.** And the IC50 [1]?
**A.** Its IC50 is 15300 nM.

**Q.** What about the viability at 5 µg/mL [2] of the same compound?
**A.** Its viability at 5 µg/mL is 96%.

**Q.** What about the viability at 50 µg/mL [2] of the same compound?
**A.** The viability at 50 µg/mL was 68.1%.

**Q.** What about the viability at 5 µg/mL [3] of the same compound?
**A.** The viability at 5 µg/mL was 94.7%.

**Q.** And the viability at 50 µg/mL [3]?
**A.** Its viability at 50 µg/mL is 65.6%.

**Q.** With `O=C1C=CC(O)(CCN2C(=O)C3=C(CCCC3)C2=O)C=C1` [Compound 13i, N-[2-(1-Hydroxy-4-oxocyclohexa-2,5-dien-1-yl)ethyl]-3,4,5,6-tetrahydrophthalimide] as the compound, how does the IC50 ([1]; Trypanosoma brucei) read?
**A.** The IC50 was 800 nM.

**Q.** What about the viability at 5 µg/mL [2] of the same compound?
**A.** The viability at 5 µg/mL was 1.04%.

**Q.** What about the viability at 50 µg/mL [2] of the same compound?
**A.** Its viability at 50 µg/mL is 0.15%.

**Q.** What about the viability at 5 µg/mL [3] of the same compound?
**A.** The viability at 5 µg/mL was 15.9%.

**Q.** What about the viability at 50 µg/mL [3] of the same compound?
**A.** Its viability at 50 µg/mL is 0%.

**Q.** Which results are given for `O=C1C=CC(O)(CCN2C(=O)C3CC=CCC3C2=O)C=C1` (centres unmarked) [Compound 13j, N-[2-(1-Hydroxy-4-oxocyclohexa-2,5-dien-1-yl)ethyl]-1,2,3,6-tetrahydrophthalimide]?
**A.** IC50 ([1]; Trypanosoma brucei): 970 nM; SI (IC50 in L6 cells/IC50 T. b. rhodesiense) [1]: 8.3; viability at 5 µg/mL [2]: 98.6%; viability at 50 µg/mL [2]: 63.3%; viability at 5 µg/mL [3]: 96.5%; viability at 50 µg/mL [3]: 76.7%

**Q.** How did the IC50 ([1]; Trypanosoma brucei) turn out when `O=C1C=CC(O)(CCN2Cc3ccccc3C2)C=C1` [Compound 14a, N-[2-(1-Hydroxy-4-oxocyclohexa-2,5-dien-1-yl)ethyl]isoindoline] was run?
**A.** Its IC50 is 570 nM.

**Q.** And the “SI” value [1]?
**A.** The value was 4.9.

**Q.** And the viability at 5 µg/mL [2]?
**A.** The viability at 5 µg/mL was 97.3%.

**Q.** What about the viability at 50 µg/mL [2] of the same compound?
**A.** Its viability at 50 µg/mL is 62.1%.

**Q.** What about the viability at 5 µg/mL [3] of the same compound?
**A.** The viability at 5 µg/mL was 99.5%.

**Q.** What about the viability at 50 µg/mL [3] of the same compound?
**A.** The viability at 50 µg/mL was 95.5%.

**Q.** Which results are given for `O=C1C=CC(O)(CCN2CCOCC2)C=C1` [Compound 14c, N-[2-(1-Hydroxy-4-oxocyclohexa-2,5-dien-1-yl)ethyl]morpholine]?
**A.** IC50 ([1]; Trypanosoma brucei): 270 nM; SI (IC50 in L6 cells/IC50 T. b. rhodesiense) [1]: 12.9; viability at 5 µg/mL [2]: 87.7%; viability at 50 µg/mL [2]: 1.58%; viability at 5 µg/mL [3]: 68.3%; viability at 50 µg/mL [3]: 1.11%
